According to patent US11040036B2, “Pyruvate kinase activators for use in treating blood disorders” (Agios Pharmaceuticals, Inc., priority 2017, dated 2021):

Legend:
wild type PKR [1] = biological target: T1, wild type PKR (Homo sapiens, UniProt P30613); assay: PKR mutant assay (AC50), wild type PKR; assay type: biochemical; conditions: wild type PKR enzyme; read-out: PKR WT AC50
Procedure, shortened: (§1)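 Compounds were tested from 100 μM final, 3-fold over 11 points, and held 60 min at room temperature with enzyme (40-400 ng/well wild-type, R510Q or K410E PKR). ADP 0.2-1.65 mM then started the reaction, with PEP 0.1-0.5 mM in pH 7.5 Tris/KCl/MgCl2 buffer. LDH/NADH (180 μM) coupled read-out was taken as A340 change, fitted to AC50.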

PKR K410E = PKR K410E (Homo sapiens, UniProt P30613, K410E); assay: PKR mutant assay (AC50), PKR K410E; assay type: biochemical; conditions: PKR K410E mutant enzyme
PKR K410E, sequence (P30613 whole entry K410E): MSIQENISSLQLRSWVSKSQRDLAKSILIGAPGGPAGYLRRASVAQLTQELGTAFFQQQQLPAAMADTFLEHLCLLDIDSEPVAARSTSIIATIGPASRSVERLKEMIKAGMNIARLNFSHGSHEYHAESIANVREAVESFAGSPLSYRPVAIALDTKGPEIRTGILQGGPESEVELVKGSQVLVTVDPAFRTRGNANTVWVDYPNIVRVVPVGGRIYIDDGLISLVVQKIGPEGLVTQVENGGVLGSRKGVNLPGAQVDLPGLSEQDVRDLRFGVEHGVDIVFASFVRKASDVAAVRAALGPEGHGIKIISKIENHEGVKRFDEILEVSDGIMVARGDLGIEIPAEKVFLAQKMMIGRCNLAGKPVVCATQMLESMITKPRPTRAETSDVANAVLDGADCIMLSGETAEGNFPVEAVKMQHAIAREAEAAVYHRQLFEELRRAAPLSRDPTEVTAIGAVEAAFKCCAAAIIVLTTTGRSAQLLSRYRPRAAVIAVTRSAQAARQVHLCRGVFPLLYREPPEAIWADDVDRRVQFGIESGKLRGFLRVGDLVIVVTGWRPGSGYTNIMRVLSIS
Procedure, shortened: as §1

PKR R510Q = PKR R510Q (Homo sapiens, UniProt P30613, R510Q); assay: PKR mutant assay (AC50), PKR R510Q; assay type: biochemical; conditions: PKR R510Q mutant enzyme; read-out: PK R510Q AC50
PKR R510Q, sequence (P30613 whole entry R510Q): as the sequence (P30613 whole entry K410E) above, with E410K, R510Q counted along it
Procedure, shortened: as §1

wild type PKR [2] = biological target: T1, wild type PKR; assay: Cell based ATP assay in purified red blood cells; design: endogenous in cells; host or cells: purified red blood cells from blood of healthy volunteers; conditions: RBCs, overnight at 37° C., ATP levels by Cell-Titer-Glo
Procedure, shortened: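 ATP content was measured by CellTiter-Glo after overnight exposure to compound at 37 °C. Cells were purified red blood cells from healthy donors, filtered to remove leukocytes and suspended at 1×10^7 cells/mL in AGAM medium. Compounds were serially diluted 1:4, with 0.1% DMSO final.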

T1 sequence (P30613 whole entry): as the sequence (P30613 whole entry K410E) above, with E410K counted along it

Compound	AC50 (wild type PKR [1])	AC50 (PKR K410E)	AC50 (PKR R510Q)	AC50 (wild type PKR [2])
Cn1c2nc(Cc3cscn3)sc2c2cnn(Cc3nccs3)c(=O)c21	< 0.3 µM	< 0.3 µM	< 0.3 µM	≤ 1 µM
Cn1c2nc(Cc3cc[nH]n3)sc2c2cnn(Cc3[nH]ncc3Cl)c(=O)c21	< 0.3 µM	< 0.3 µM	< 0.3 µM	≤ 1 µM
Cn1c2nc(Cc3ccccn3)sc2c2cnn(Cc3n[nH]cc3F)c(=O)c21	< 0.3 µM	< 0.3 µM	< 0.3 µM	≤ 1 µM
Cn1c2nc(Cc3ccccn3)sc2c2cnn(Cc3n[nH]cc3Cl)c(=O)c21	< 0.3 µM	< 0.3 µM	< 0.3 µM	≤ 1 µM
Cn1c2nc(C(=O)c3cc[nH]n3)sc2c2cnn(Cc3cc[nH]n3)c(=O)c21	0.301 to 0.8 µM	> 0.8 µM	0.301 to 0.8 µM	≤ 1 µM
Cn1c2nc(Cc3ccccn3)sc2c2cnn(Cc3cscn3)c(=O)c21	< 0.3 µM	< 0.3 µM	< 0.3 µM	≤ 1 µM
Cn1c2nc(Cc3cscn3)sc2c2cnn(Cc3cccc(N)n3)c(=O)c21	< 0.3 µM	< 0.3 µM	< 0.3 µM	≤ 1 µM
Cn1c2nc(Cc3n[nH]cc3F)sc2c2cnn(Cc3n[nH]cc3C(N)=O)c(=O)c21	< 0.3 µM	< 0.3 µM	< 0.3 µM	≤ 1 µM
Cc1scnc1Cc1nc2c(s1)c1cnn(Cc3c[nH]nn3)c(=O)c1n2C	< 0.3 µM	< 0.3 µM	< 0.3 µM	≤ 1 µM
Cn1c2nc(Cc3cc[nH]n3)sc2c2cnn(Cc3ccc(C(N)=O)cn3)c(=O)c21	0.301 to 0.8 µM	< 0.3 µM	> 0.8 µM	≤ 1 µM
Cn1c2nc(Cc3n[nH]cc3F)sc2c2cnn(Cc3cc[nH]n3)c(=O)c21	< 0.3 µM	< 0.3 µM	< 0.3 µM	≤ 1 µM
Cn1c2nc(Cc3cc[nH]n3)sc2c2cnn(Cc3ccc(C#N)cn3)c(=O)c21	0.301 to 0.8 µM	< 0.3 µM	< 0.3 µM	≤ 1 µM
Cn1c2nc(Cn3ccnn3)sc2c2cnn(Cc3cc[nH]n3)c(=O)c21	< 0.3 µM	< 0.3 µM	< 0.3 µM	≤ 1 µM
Cn1c2nc(Cc3n[nH]cc3F)sc2c2cnn(Cc3n[nH]cc3N)c(=O)c21	< 0.3 µM	< 0.3 µM	< 0.3 µM	≤ 1 µM
Cn1c2nc(Cc3cc[nH]n3)sc2c2cnn(Cc3nc(C(N)=O)cs3)c(=O)c21	< 0.3 µM	< 0.3 µM	< 0.3 µM	≤ 1 µM
Cn1c2nc(Cc3nc(N)sc3F)sc2c2cnn(Cc3c[nH]nn3)c(=O)c21	< 0.3 µM	< 0.3 µM	< 0.3 µM	≤ 1 µM
Cn1c2nc(Cc3cc[nH]n3)sc2c2cnn(Cc3cc(C(N)=O)[nH]n3)c(=O)c21	0.301 to 0.8 µM	0.301 to 0.8 µM	> 0.8 µM	> 1 µM
Cn1c2nc(Cc3ccccn3)sc2c2cnn(Cc3c[nH]nn3)c(=O)c21	< 0.3 µM	< 0.3 µM	< 0.3 µM	≤ 1 µM
Cn1c2nc(Cc3cc[nH]n3)sc2c2cnn(Cc3cc[nH]c(=O)c3)c(=O)c21	< 0.3 µM	< 0.3 µM	0.301 to 0.8 µM	≤ 1 µM
Cn1c2nc([C@H](O)c3cc[nH]n3)sc2c2cnn(Cc3cc[nH]n3)c(=O)c21	< 0.3 µM	< 0.3 µM	< 0.3 µM	≤ 1 µM
Cn1c2nc(Cc3n[nH]cc3F)sc2c2cnn(Cc3cscn3)c(=O)c21	< 0.3 µM	< 0.3 µM	< 0.3 µM	≤ 1 µM
Cn1c2nc(Cc3cc[nH]n3)sc2c2cnn(Cc3cncs3)c(=O)c21	< 0.3 µM	< 0.3 µM	< 0.3 µM	≤ 1 µM
CNc1ccc(F)c(Cc2nc3c(s2)c2cnn(Cc4c[nH]nn4)c(=O)c2n3C)n1	< 0.3 µM	< 0.3 µM	< 0.3 µM	≤ 1 µM
Cn1c2nc(Cc3c[nH]nn3)sc2c2cnn(Cc3cscn3)c(=O)c21	< 0.3 µM	< 0.3 µM	< 0.3 µM	≤ 1 µM

Next, values leading:

AC50 (wild type PKR [1])	AC50 (PKR K410E)	AC50 (PKR R510Q)	AC50 (wild type PKR [2])	Compound
> 0.8 µM	> 0.8 µM	< 0.3 µM	> 1 µM	Cn1cc(CN)c(Cn2ncc3c4sc(Cc5cc[nH]n5)nc4n(C)c3c2=O)n1
< 0.3 µM	< 0.3 µM	< 0.3 µM	≤ 1 µM	Cn1c2nc(Cc3cc[nH]n3)sc2c2cnn(Cc3ncoc3Cl)c(=O)c21
< 0.3 µM	< 0.3 µM	< 0.3 µM	≤ 1 µM	Cn1ncc(Cn2ncc3c4sc(Cc5cc[nH]n5)nc4n(C)c3c2=O)n1
< 0.3 µM	< 0.3 µM	0.301 to 0.8 µM	≤ 1 µM	Cn1c2nc(Cc3cc[nH]n3)sc2c2cnn(Cc3cnc(N)o3)c(=O)c21
< 0.3 µM	< 0.3 µM	< 0.3 µM	≤ 1 µM	Cn1cc(C#N)c(Cn2ncc3c4sc(Cc5cc[nH]n5)nc4n(C)c3c2=O)n1
< 0.3 µM	< 0.3 µM	< 0.3 µM	≤ 1 µM	Cn1c2nc(Cc3cc[nH]n3)sc2c2cnn(Cc3ncc(N)s3)c(=O)c21
< 0.3 µM	< 0.3 µM	< 0.3 µM	≤ 1 µM	Cn1ccc(Cn2ncc3c4sc(Cc5cc[nH]n5)nc4n(C)c3c2=O)n1
< 0.3 µM	< 0.3 µM	< 0.3 µM	≤ 1 µM	Cn1c2nc(Cc3cc[nH]n3)sc2c2cnn(Cc3csc(N)n3)c(=O)c21
< 0.3 µM	< 0.3 µM	< 0.3 µM	≤ 1 µM	Cn1c2nc(Cc3cc[nH]n3)sc2c2cnn(Cc3ccnn3N)c(=O)c21
< 0.3 µM	< 0.3 µM	< 0.3 µM	≤ 1 µM	Cn1c2nc(Cc3cc[nH]n3)sc2c2cnn(Cc3coc(N)n3)c(=O)c21
0.301 to 0.8 µM	0.301 to 0.8 µM	0.301 to 0.8 µM	> 1 µM	Cn1c2nc(Cc3cc[nH]n3)sc2c2cnn(Cc3nc[nH]c3N)c(=O)c21
< 0.3 µM	< 0.3 µM	< 0.3 µM	≤ 1 µM	Cn1c2nc(Cc3cc[nH]n3)sc2c2cnn(Cc3n[nH]cc3C#N)c(=O)c21
< 0.3 µM	< 0.3 µM	< 0.3 µM	≤ 1 µM	Cn1c2nc(Cc3cc[nH]n3)sc2c2cnn(Cc3ccn(N)n3)c(=O)c21
0.301 to 0.8 µM	0.301 to 0.8 µM	> 0.8 µM	> 1 µM	Cn1c2nc(Cc3cc[nH]n3)sc2c2cnn(Cc3nc[nH]c3C(N)=O)c(=O)c21
< 0.3 µM	< 0.3 µM	< 0.3 µM	≤ 1 µM	Cn1c2nc(Cc3cc[nH]n3)sc2c2cnn(Cc3csc(Cl)n3)c(=O)c21
< 0.3 µM	< 0.3 µM	< 0.3 µM	≤ 1 µM	Cn1cc(CO)c(Cn2ncc3c4sc(Cc5cc[nH]n5)nc4n(C)c3c2=O)n1
< 0.3 µM	< 0.3 µM	< 0.3 µM	≤ 1 µM	Cn1c2nc(Cc3cc[nH]n3)sc2c2cnn(Cc3ncsc3F)c(=O)c21
< 0.3 µM	< 0.3 µM	< 0.3 µM	≤ 1 µM	Cn1c2nc(Cc3cc[nH]n3)sc2c2cnn(Cc3cnc(N)s3)c(=O)c21
